Measurements: US12162840B2, “Herbicidal compositions” (SYNGENTA PARTICIPATIONS AG, priority 2018, dated 2024)

Tests used:
Format in all cases: in vivo
[1] = tested on: Setaria faberi (SETFA); experiment: B1 Post-emergence efficacy Test 1; details: post-emergence application, 1000 g/ha, evaluated after 13 days
In short: (§1)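 Seedlings grown 8 days in soil pots in a glasshouse (24/16 °C day/night, 14 h light, 65% humidity) were sprayed post-emergence at 1000 g/ha from acetone/water (50:50) with 0.5% Tween 20. Percent damage was scored 13 days later on a five-point scale (5=80-100% to 1=0-19%).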

[2] = tested on: Ipomoea hederacea (IPOHE); experiment: B1 Post-emergence efficacy Test 1; details: post-emergence application, 1000 g/ha, evaluated after 13 days
In short: as §1

[3] = tested on: Amaranthus retoflexus (AMARE); experiment: B1 Post-emergence efficacy Test 1; details: post-emergence application, 1000 g/ha, evaluated after 13 days
In short: as §1

[4] = tested on: Lolium perenne (LOLPE); experiment: B1 Post-emergence efficacy Test 1; details: post-emergence application, 1000 g/ha, evaluated after 13 days
In short: as §1

[5] = tested on: Solanum nigrum (SOLNI); experiment: B1 Post-emergence efficacy Test 1; details: post-emergence application, 1000 g/ha, evaluated after 13 days
In short: as §1

[6] = tested on: Echinochloa crus-galli (ECHCG); experiment: B1 Post-emergence efficacy Test 1; details: post-emergence application, 1000 g/ha, evaluated after 13 days
In short: as §1

[7] = tested on: warm season plant species; experiment: B2 Post-emergence efficacy Test 2, warm season plant species; details: 15 days after application, 0-100 scale, 0=no damage, 100=total kill; for Herbicidal activity, ABUTH: Abutilon theophrasti; for Herbicidal activity, AMARE: Amaranthus retroflexus; for Herbicidal activity, BIDPI: Bidens pilosa; for Herbicidal activity, BRAPL: Brachiaria plantaginea; for Herbicidal activity, DIGSA: Digitaria sanguinalis; for Herbicidal activity, ECHCG: Echinochloa crus galli; for Herbicidal activity, ELEIN: Eleisine indica; for Herbicidal activity, EPHHL: Euphorbia hetrophylla; for Herbicidal activity, GLXMA: Glycine max; for Herbicidal activity, IPOHE: Ipomoea hederacea; for Herbicidal activity, ORYSA: Orysa sativa; for Herbicidal activity, PANMI: Panicum miliaceum; for Herbicidal activity, SETFA: Setaria faberi; for Herbicidal activity, SIDSP: Sida spinosa; for Herbicidal activity, SORVU: Sorghum bicolour; for Herbicidal activity, XANST: Xanthium strumarium; for Herbicidal activity, ZEAMX: Zea mays
In short: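 Herbicidal effect rated visually 0 (no damage) to 100 (complete kill) at 15 days post-treatment. Post-emergence spray at 12 days used an IF50 formulation with 0.2% v/v Genapol XO80 adjuvant; glasshouse 24/18 or 20/16 °C, 16 h light, 65% humidity.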

SMILES: Cc1nn(C)c(=O)c(-c2c(F)ccc(Cl)c2CCc2ccc(Cl)cc2)c1OC(=O)C(C)C [Compound 1.089]
- percentage damage caused to the plant, five point scale, SETFA [1]: 5 (5=80-100%)
- percentage damage caused to the plant, five point scale, IPOHE [2]: 5 (5=80-100%)
- percentage damage caused to the plant, five point scale, AMARE [3]: 5 (5=80-100%)
- percentage damage caused to the plant, five point scale, LOLPE [4]: 5 (5=80-100%)
- percentage damage caused to the plant, five point scale, SOLNI [5]: 5 (5=80-100%)
- percentage damage caused to the plant, five point scale, ECHCG [6]: 5 (5=80-100%)
- Herbicidal activity, ABUTH ([7]; 15 g/Ha): 70
- Herbicidal activity, ABUTH ([7]; 30 g/Ha): 90
- Herbicidal activity, ABUTH ([7]; 60 g/Ha): 100
- Herbicidal activity, ABUTH ([7]; 125 g/Ha): 100
- Herbicidal activity, ABUTH ([7]; 250 g/Ha): 100
- Herbicidal activity, ABUTH ([7]; 500 g/Ha): 100
- Herbicidal activity, AMARE ([7]; 15 g/Ha): 80
- Herbicidal activity, AMARE ([7]; 30 g/Ha): 80
- Herbicidal activity, AMARE ([7]; 60 g/Ha): 90
- Herbicidal activity, AMARE ([7]; 125 g/Ha): 100
- Herbicidal activity, AMARE ([7]; 250 g/Ha): 100
- Herbicidal activity, AMARE ([7]; 500 g/Ha): 100
- Herbicidal activity, BIDPI ([7]; 15 g/Ha): 70
- Herbicidal activity, BIDPI ([7]; 30 g/Ha): 60
- Herbicidal activity, BIDPI ([7]; 60 g/Ha): 70
- Herbicidal activity, BIDPI ([7]; 125 g/Ha): 80
- Herbicidal activity, BIDPI ([7]; 250 g/Ha): 80
- Herbicidal activity, BIDPI ([7]; 500 g/Ha): 100
- Herbicidal activity, BRAPL ([7]; 15 g/Ha): 80
- Herbicidal activity, BRAPL ([7]; 30 g/Ha): 90
- Herbicidal activity, BRAPL ([7]; 250 g/Ha): 90
- Herbicidal activity, BRAPL ([7]; 500 g/Ha): 90
- Herbicidal activity, DIGSA ([7]; 15 g/Ha): 0
- Herbicidal activity, DIGSA ([7]; 30 g/Ha): 0
- Herbicidal activity, DIGSA ([7]; 60 g/Ha): 0
- Herbicidal activity, DIGSA ([7]; 125 g/Ha): 10
- Herbicidal activity, DIGSA ([7]; 250 g/Ha): 40
- Herbicidal activity, DIGSA ([7]; 500 g/Ha): 30
- Herbicidal activity, ECHCG ([7]; 15 g/Ha): 80
- Herbicidal activity, ECHCG ([7]; 30 g/Ha): 80
- Herbicidal activity, ECHCG ([7]; 60 g/Ha): 80
- Herbicidal activity, ECHCG ([7]; 125 g/Ha): 90
- Herbicidal activity, ECHCG ([7]; 250 g/Ha): 90
- Herbicidal activity, ECHCG ([7]; 500 g/Ha): 100
- Herbicidal activity, ELEIN ([7]; 15 g/Ha): 0
- Herbicidal activity, ELEIN ([7]; 30 g/Ha): 0
- Herbicidal activity, ELEIN ([7]; 60 g/Ha): 70
- Herbicidal activity, ELEIN ([7]; 125 g/Ha): 80
- Herbicidal activity, ELEIN ([7]; 250 g/Ha): 90
- Herbicidal activity, ELEIN ([7]; 500 g/Ha): 90
- Herbicidal activity, EPHHL ([7]; 15 g/Ha): 80
- Herbicidal activity, EPHHL ([7]; 30 g/Ha): 100
- Herbicidal activity, EPHHL ([7]; 60 g/Ha): 100
- Herbicidal activity, EPHHL ([7]; 125 g/Ha): 100
- Herbicidal activity, EPHHL ([7]; 250 g/Ha): 100
- Herbicidal activity, EPHHL ([7]; 500 g/Ha): 100
- Herbicidal activity, GLXMA ([7]; 30 g/Ha): 70
- Herbicidal activity, GLXMA ([7]; 60 g/Ha): 80
- Herbicidal activity, GLXMA ([7]; 250 g/Ha): 100
- Herbicidal activity, GLXMA ([7]; 500 g/Ha): 100
- Herbicidal activity, IPOHE ([7]; 15 g/Ha): 100
- Herbicidal activity, IPOHE ([7]; 30 g/Ha): 100
- Herbicidal activity, IPOHE ([7]; 60 g/Ha): 100
- Herbicidal activity, IPOHE ([7]; 125 g/Ha): 100
- Herbicidal activity, IPOHE ([7]; 250 g/Ha): 100
- Herbicidal activity, IPOHE ([7]; 500 g/Ha): 100
- Herbicidal activity, ORYSA ([7]; 15 g/Ha): 0
- Herbicidal activity, ORYSA ([7]; 30 g/Ha): 0
- Herbicidal activity, ORYSA ([7]; 60 g/Ha): 0
- Herbicidal activity, ORYSA ([7]; 125 g/Ha): 10
- Herbicidal activity, ORYSA ([7]; 250 g/Ha): 20
- Herbicidal activity, ORYSA ([7]; 500 g/Ha): 50
- Herbicidal activity, PANMI ([7]; 15 g/Ha): 0
- Herbicidal activity, PANMI ([7]; 30 g/Ha): 20
- Herbicidal activity, PANMI ([7]; 60 g/Ha): 50
- Herbicidal activity, PANMI ([7]; 125 g/Ha): 60
- Herbicidal activity, PANMI ([7]; 250 g/Ha): 80
- Herbicidal activity, PANMI ([7]; 500 g/Ha): 90
- Herbicidal activity, SETFA ([7]; 15 g/Ha): 0
- Herbicidal activity, SETFA ([7]; 30 g/Ha): 20
- Herbicidal activity, SETFA ([7]; 60 g/Ha): 30
- Herbicidal activity, SETFA ([7]; 125 g/Ha): 60
- Herbicidal activity, SETFA ([7]; 250 g/Ha): 60
- Herbicidal activity, SETFA ([7]; 500 g/Ha): 80
- Herbicidal activity, SIDSP ([7]; 30 g/Ha): 80
- Herbicidal activity, SIDSP ([7]; 60 g/Ha): 90
- Herbicidal activity, SIDSP ([7]; 125 g/Ha): 100
- Herbicidal activity, SIDSP ([7]; 250 g/Ha): 100
- Herbicidal activity, SIDSP ([7]; 500 g/Ha): 100
- Herbicidal activity, SORVU ([7]; 15 g/Ha): 0
- Herbicidal activity, SORVU ([7]; 30 g/Ha): 60
- Herbicidal activity, SORVU ([7]; 60 g/Ha): 70
- Herbicidal activity, SORVU ([7]; 125 g/Ha): 90
- Herbicidal activity, SORVU ([7]; 250 g/Ha): 90
- Herbicidal activity, SORVU ([7]; 500 g/Ha): 90
- Herbicidal activity, XANST ([7]; 30 g/Ha): 90
- Herbicidal activity, XANST ([7]; 60 g/Ha): 80
- Herbicidal activity, XANST ([7]; 125 g/Ha): 90
- Herbicidal activity, XANST ([7]; 250 g/Ha): 90
- Herbicidal activity, XANST ([7]; 500 g/Ha): 100
- Herbicidal activity, ZEAMX ([7]; 15 g/Ha): 0
- Herbicidal activity, ZEAMX ([7]; 30 g/Ha): 20
- Herbicidal activity, ZEAMX ([7]; 60 g/Ha): 30
- Herbicidal activity, ZEAMX ([7]; 125 g/Ha): 30
- Herbicidal activity, ZEAMX ([7]; 250 g/Ha): 90
- Herbicidal activity, ZEAMX ([7]; 500 g/Ha): 100
